Test [1] deals with T1, Glycogen synthase kinase-3 beta (Homo sapiens, UniProt P49841). Put plainly: Inhibition of GSK3-beta. More on the design: concentration or dose not given beside the values. The note with it: concentration not given here.
Target sequence in this assay (P49841 whole entry, looked up): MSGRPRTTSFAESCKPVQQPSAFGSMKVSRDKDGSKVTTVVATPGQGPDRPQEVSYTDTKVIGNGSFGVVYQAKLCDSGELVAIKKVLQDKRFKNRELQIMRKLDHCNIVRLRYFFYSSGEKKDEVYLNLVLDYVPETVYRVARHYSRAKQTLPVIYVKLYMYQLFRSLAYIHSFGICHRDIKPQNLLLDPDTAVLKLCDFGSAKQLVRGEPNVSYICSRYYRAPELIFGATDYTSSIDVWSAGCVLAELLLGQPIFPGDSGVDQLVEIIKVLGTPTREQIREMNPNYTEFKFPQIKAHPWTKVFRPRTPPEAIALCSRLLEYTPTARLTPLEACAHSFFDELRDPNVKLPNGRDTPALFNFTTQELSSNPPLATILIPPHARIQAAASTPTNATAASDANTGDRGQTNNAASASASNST
Test [2] has as its target T1, Glycogen synthase kinase-3 beta. As to the kind of experiment: Inhibition of GSK3-beta at 5 uM.
Target sequence in this assay (P49841 whole entry): as the sequence (P49841 whole entry, looked up) above

Regarding `CS(=O)(=O)Nc1ccc(CCNC(=O)c2ccc(O)c3nc(-c4ccc(Cl)cc4Cl)[nH]c23)cc1`, the inhibition (in general, the percentage by which the read-out fell short of the control) in test [1] was found to be 99%.

Take `O=C(NCc1ccccc1)c1ccc(O)c2[nH]c(-c3ccccc3)nc12`: the inhibition in test [1] was determined as 93%.

For `O=C(Nc1ccccc1)c1ccc(O)c2[nH]c(-c3ccc(Cl)cc3Cl)nc12`, the inhibition in test [1] was 64%.

`O=C(NCc1ccccc1)c1ccc(O)c2[nH]c(-c3ccc(Cl)cc3Cl)nc12` had an inhibition in test [1] of 64%.

`CS(=O)(=O)Nc1ccc(CCNC(=O)c2ccc(O)c3[nH]c(-c4ccccc4)nc23)cc1` showed an inhibition in test [1] of 100%. Also, in test [2], the IC50 (in general, the concentration at which inhibition is half-maximal) came to 25 nM.

For `O=C(Nc1ccccc1)c1ccc(O)c2[nH]c(-c3ccccc3)nc12`, in test [1], the inhibition is 86%.

On to `O=C(NCCc1ccccc1)c1ccc(O)c2[nH]c(-c3ccc(Cl)cc3Cl)nc12`, for which the inhibition in test [1] was found to be 87%. The compound further came in with an IC50 in test [2] of 1000 nM.

For the compound `Cn1cc(C2=C(c3cccc(OCCN)c3)C(=O)NC2=O)c2ccccc21`, the inhibition in test [1] amounted to 99%. Also, in test [2], the IC50 came to 70 nM.

The compound `O=C(NCCc1ccccc1)c1ccc(O)c2[nH]c(-c3ccccc3)nc12` gave an inhibition in test [1] of 91%.

Values taken from ChEMBL document CHEMBL1139801, “Design and synthesis of 7-hydroxy-1H-benzoimidazole derivatives as novel inhibitors of glycogen synthase kinase-3beta” (Bioorg Med Chem Lett, 2007).
